Results as given in publication PMC9220351, “Evaluation of a Conformationally Constrained Indole Carboxamide as a Potential Efflux Pump Inhibitor in Pseudomonas aeruginosa” (Antibiotics, 2022).

Columns and labels:
P. aeruginosa DA7232 = test: Levofloxacin accumulation assay; format: cell-based, Pseudomonas aeruginosa; settings: levofloxacin 64 μg/mL; compound 1/2, 1/4th, 1/8th MIC
Protocol: Similar assays have been described elsewhere with the same purpose.
The treated bacterial culture samples were incubated on ice for 15 min, centrifuged, washed with 1X PBS (pH 7.4), and then resuspended in 1 mL of glycine-HCl buffer (pH 3.0) overnight, followed by centrifugation. The fluorescence of 100 μL of supernatant was read at 490 nm following a 355 nm excitation in a SpectraMax iD5 spectrophotometer (Molecular Devices, San Jose, CA, USA).

[1] = CellTiterGlo cytotoxicity assay; format: cell-based; settings: human, A549 cells
[2] = system: P. aeruginosa K3698 (∆oprM); test: MIC / potentiation assay, strain K3698; format: cell-based, Pseudomonas aeruginosa; settings: Pseudomonas aeruginosa, read-out: MICs K3698 (∆oprM)
Description: P. aeruginosa ATCC 27853 was obtained from the American Type Culture Collection (ATCC; Manassas, VA, USA). P. aeruginosa multidrug-resistant isolates were obtained from the CDC and FDA Antibiotic Resistance Isolate Bank (Atlanta, GA, USA). P. aeruginosa DA7232 (gyrA-T83I, parC-S80L) was a kind gift from Prof. Dan I. Andersson, Uppsala University, Uppsala, Sweden, and has been characterized elsewhere. P. aeruginosa strains K767 (WT), K1455 (mexAB-oprM overexpressed), K2415 (mexXY-oprM overexpressed), and K3698 (oprM∆) were obtained from Prof. Keith Poole, Queen’s University, Kingston, Ontario, Canada and have been characterized elsewhere. Bacterial cells were grown in cation-adjusted Mueller Hinton (CAMH) media, brain heart infusion broth (BHI), or tryptic soy agar (TSA) plates were all obtained from Becton, Dickinson, and Company (BD; Franklin Lakes, NJ, USA). […] Azithromycin was purchased from Tokyo Chemical Industry (Portland, OR, USA). […] Ethidium bromide (EtBr) and glucose were purchased from VWR (Radnor, PA, USA). MC-04,124 and TXA01182 were synthesized at TAXIS Pharmaceuticals. Carbonyl cyanide 3-chlorophenylhydrazone (CCCP) was purchased from Enzo Life Sciences (Farmingdale, NY, USA). DiOC2 (3) and propidium iodide were obtained from Thermo Fisher Scientific (Waltham, MA, USA).
MIC assays were performed as described previously.

With `Cl.NC[C@@H]1CN[C@H](CNC(=O)c2cc3ccc(-c4ccc(F)cc4)cc3[nH]2)C1` [TXA09155, N-(((2S,4R)-4-(aminomethyl)pyrrolidine-2-yl)methyl)-6-(4-fluorophenyl)-1H-indole-2-carboxamide hydrochloride salt] the “accumulation of levofloxacin inside P. aeruginosa” value (P. aeruginosa DA7232) was “concentration-dependent manner” and the IC50 [1] was over 40 µM.

For `C[C@H]1COc2c(N3CCN(C)CC3)c(F)cc3c(=O)c(C(=O)O)cn1c23` [Levofloxacin], the MIC [2] was 0.031 µg/mL.
